{"source": "ChEMBL document CHEMBL1201862", "about": "“PubChem BioAssay data set” (2004)", "key": {"BJ [1]": {"test_system": "BJ", "test": "BJ-TERT fibroblast viability loss – cell-based, RAS-independent, luminescence, dose response (AID 1933)", "format": "functional", "conditions": "Homo sapiens"}, "BJ [2]": {"test_system": "BJ", "test": "cells", "format": "functional, cell-based", "conditions": "Homo sapiens"}, "BJ [3]": {"test_system": "BJ", "test": "BJ-TERT-LT-ST fibroblast viability loss – cell-based, RAS-independent, luminescence, dose response (AID 1935);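 note: BJ fibroblasts immortalized with TERT plus LT and ST oncogenes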", "format": "functional", "conditions": "Homo sapiens"}, "[4]": {"test": "DRD fibroblast viability loss – cell-based, non-viral oncogenic, luminescence, dose response (AID 1934)", "format": "functional", "conditions": "Homo sapiens"}, "[5]": {"test": "HEK-293T viability loss after treatment – luminescence, T-cell screen hits, cytotoxicity control for TCR NF-kB inhibitor project, dose response (AID 489026);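 note: cells exposed to compound about 14 hours before the viability readout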", "format": "functional, cell-based"}, "BJ [6]": {"test_system": "BJ", "test": "growth inhibition of engineered Ras-driven BJ cells – cell-based, alamar blue fluorescence, cherrypicked samples, dose response (AID 2631)", "format": "functional", "conditions": "Homo sapiens"}, "[7]": {"test": "NIH-3T3 fibroblast cytotoxicity, dose response, cytotoxicity control, cell-based, fluorescence, Alamar Blue, secondary assay (AID 2327);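 note: NIH-3T3 mouse fibroblasts cultured with fluconazole at 8 µg/mL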", "format": "functional"}, "[8]": {"test": "fluconazole-exposed Candida albicans growth modulators – fluorescence, retest, confirmation (AID 2467)", "format": "functional, cell-based"}, "[9]": {"target": "T1, Carboxy-terminal domain RNA polymerase II polypeptide A small phosphatase 1 (Homo sapiens, UniProt Q9GZU7)", "T1 sequence (Q9GZU7 whole entry)": "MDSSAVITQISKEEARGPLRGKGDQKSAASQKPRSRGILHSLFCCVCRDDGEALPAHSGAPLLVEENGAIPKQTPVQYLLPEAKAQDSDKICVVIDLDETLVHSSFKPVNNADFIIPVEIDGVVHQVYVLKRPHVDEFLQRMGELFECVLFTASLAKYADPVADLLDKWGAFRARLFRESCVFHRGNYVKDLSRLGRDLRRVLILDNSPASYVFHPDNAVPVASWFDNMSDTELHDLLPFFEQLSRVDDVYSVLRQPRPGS", "test": "CTDSP1 inhibitors, concentration-response, biochemical, absorbance readout, ultra-high-throughput screen actives (AID 540297)", "format": "functional"}, "[10]": {"target": "Luciferin 4-monooxygenase (Photinus pyralis, UniProt P08659)", "sequence (P08659 whole entry)": "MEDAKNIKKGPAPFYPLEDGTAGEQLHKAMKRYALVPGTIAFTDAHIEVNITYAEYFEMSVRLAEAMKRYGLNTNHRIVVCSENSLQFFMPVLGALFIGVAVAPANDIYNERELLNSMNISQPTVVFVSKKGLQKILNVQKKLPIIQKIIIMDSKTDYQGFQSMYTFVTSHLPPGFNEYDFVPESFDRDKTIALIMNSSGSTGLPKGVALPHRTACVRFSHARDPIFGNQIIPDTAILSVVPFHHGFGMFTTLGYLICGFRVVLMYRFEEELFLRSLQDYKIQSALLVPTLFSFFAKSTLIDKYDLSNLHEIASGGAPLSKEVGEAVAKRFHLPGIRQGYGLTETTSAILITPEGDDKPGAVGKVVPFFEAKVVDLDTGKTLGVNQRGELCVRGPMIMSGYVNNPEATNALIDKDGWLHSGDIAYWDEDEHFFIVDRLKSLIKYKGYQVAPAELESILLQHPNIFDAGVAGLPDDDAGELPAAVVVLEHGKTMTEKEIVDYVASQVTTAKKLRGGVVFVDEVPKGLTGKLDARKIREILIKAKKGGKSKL", "test": "inhibition of purified Photinus pyralis luciferase – biochemical, luminescence, dose response (AID 1891)"}, "[11]": {"test": "Luminescence Cell-Based Dose Confirmation HTS to Identify Inhibitors of Platelet Dense Granule Release. [Related pubchem assays: 1663 (Primary HTS), 1678 (Summary of Project)]", "format": "functional"}, "[12]": {"test": "microbe, parasite or virus in culture", "format": "functional", "conditions": "Mycobacterium tuberculosis"}, "Melanocortin receptor 4": {"target": "Melanocortin receptor 4 (Homo sapiens, UniProt P32245)", "sequence (P32245 whole entry)": "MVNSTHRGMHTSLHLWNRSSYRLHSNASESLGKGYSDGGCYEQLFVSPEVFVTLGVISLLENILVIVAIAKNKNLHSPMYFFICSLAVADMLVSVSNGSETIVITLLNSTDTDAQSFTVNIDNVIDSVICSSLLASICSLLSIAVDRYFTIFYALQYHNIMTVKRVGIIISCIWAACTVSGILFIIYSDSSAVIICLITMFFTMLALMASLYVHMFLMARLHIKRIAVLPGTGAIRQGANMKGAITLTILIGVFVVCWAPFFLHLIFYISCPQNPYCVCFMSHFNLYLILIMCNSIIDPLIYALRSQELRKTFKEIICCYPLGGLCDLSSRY", "format": "functional, cell-based"}, "[13]": {"test": "Luminescence Cell-Based Dose Retest to Confirm Inhibitors of Cancer Stem Cells. [Related pubchem assays (depositor defined):AID2717, AID2721]", "format": "functional", "conditions": "Homo sapiens"}, "[14]": {"test": "reduction of Shn3 3'UTR-driven luciferase in osteoblasts – cell-based, Clone20 osteoblasts, firefly luciferase, cherry-picked, dose response (AID 624132);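 note: firefly luciferase luminescence from reporter carrying the Shn3 3'UTR in osteoblasts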", "format": "functional"}, "[15]": {"test": "loss of viability in HepG2 cells – cell-based, CellTiter-Glo, cherry-picked, cytotoxicity control for Shn3 inhibitor project, dose response (AID 624134)", "format": "functional"}, "Beta-galactosidase": {"target": "Beta-galactosidase (Escherichia coli, UniProt Q8VNN2)", "sequence (Q8VNN2 whole entry)": "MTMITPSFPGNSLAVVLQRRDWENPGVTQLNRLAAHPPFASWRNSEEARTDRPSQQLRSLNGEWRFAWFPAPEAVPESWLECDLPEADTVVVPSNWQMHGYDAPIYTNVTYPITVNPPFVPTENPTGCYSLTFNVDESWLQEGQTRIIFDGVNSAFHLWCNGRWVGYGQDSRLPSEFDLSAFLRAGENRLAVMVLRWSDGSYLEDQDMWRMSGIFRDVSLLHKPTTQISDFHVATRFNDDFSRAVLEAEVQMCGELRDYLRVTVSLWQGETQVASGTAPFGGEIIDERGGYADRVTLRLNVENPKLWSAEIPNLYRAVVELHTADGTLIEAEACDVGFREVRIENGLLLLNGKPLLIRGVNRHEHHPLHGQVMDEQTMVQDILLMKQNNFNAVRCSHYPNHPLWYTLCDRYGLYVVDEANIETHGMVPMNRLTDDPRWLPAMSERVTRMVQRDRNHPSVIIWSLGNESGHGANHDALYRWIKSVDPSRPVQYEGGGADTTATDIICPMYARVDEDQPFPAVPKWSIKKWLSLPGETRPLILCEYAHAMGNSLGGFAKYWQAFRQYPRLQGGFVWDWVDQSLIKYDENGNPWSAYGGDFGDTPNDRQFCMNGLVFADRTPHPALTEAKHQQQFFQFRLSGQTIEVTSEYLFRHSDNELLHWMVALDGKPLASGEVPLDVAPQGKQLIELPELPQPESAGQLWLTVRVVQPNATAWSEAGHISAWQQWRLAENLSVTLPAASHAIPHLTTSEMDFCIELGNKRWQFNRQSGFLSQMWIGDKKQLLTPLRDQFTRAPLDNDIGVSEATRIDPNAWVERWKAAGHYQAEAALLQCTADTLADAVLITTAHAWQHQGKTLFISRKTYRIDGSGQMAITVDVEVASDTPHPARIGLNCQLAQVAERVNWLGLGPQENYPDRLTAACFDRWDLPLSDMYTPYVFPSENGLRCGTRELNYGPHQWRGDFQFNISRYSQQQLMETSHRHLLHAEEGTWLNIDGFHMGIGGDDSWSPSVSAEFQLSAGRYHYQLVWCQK", "test": "detection-enzyme interference by beta-gal modulators – biochemical, E. coli enzyme, set 3, artefact control for CCR6 antagonist project, dose response (AID 504712)", "format": "functional"}, "HEK293": {"test_system": "HEK293", "test": "EBV LMP1 TES2 canonical NF-kB signalling blockers – cell-based, HEK293, luciferase, cherry-pick, dose response (AID 588343)", "format": "functional", "conditions": "Homo sapiens"}, "[16]": {"target": "T2, High affinity choline transporter 1 (Homo sapiens, UniProt Q9GZV3)", "T2 sequence (Q9GZV3 whole entry)": "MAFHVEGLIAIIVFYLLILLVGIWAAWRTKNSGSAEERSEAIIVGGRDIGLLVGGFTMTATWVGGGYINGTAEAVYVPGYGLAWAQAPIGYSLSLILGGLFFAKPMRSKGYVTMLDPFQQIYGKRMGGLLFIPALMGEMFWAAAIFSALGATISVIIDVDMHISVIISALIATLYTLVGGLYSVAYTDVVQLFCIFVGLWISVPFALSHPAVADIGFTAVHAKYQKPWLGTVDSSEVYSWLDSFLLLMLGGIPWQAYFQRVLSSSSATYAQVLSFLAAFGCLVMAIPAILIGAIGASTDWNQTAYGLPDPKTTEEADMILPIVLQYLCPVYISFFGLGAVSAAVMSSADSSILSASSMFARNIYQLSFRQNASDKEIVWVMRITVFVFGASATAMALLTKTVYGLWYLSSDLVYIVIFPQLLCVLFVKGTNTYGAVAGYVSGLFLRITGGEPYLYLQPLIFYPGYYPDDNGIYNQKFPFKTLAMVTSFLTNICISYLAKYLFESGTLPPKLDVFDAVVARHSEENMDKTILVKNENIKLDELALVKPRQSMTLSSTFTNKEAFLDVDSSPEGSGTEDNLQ", "test": "human choline transporter blockers, potency – cell-based, 5-point CRC, membrane potential dye, dose response (AID 504840)", "format": "functional"}, "[17]": {"target": "Casein kinase I isoform alpha (Homo sapiens, UniProt P48729)", "sequence (P48729 whole entry, canonical isoform)": "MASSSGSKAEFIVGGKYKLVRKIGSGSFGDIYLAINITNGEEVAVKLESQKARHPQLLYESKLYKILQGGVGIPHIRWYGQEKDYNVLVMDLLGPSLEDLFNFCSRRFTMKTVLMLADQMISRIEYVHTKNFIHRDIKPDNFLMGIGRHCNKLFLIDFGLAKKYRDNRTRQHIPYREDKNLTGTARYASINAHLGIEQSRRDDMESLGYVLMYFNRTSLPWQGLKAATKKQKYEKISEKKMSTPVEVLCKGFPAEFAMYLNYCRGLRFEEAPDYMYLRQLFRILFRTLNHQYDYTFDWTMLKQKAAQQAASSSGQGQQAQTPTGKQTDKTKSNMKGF", "format": "functional"}}, "note": "Calls of active or inactive are those of the source.", "data": [{"compound": "CC(C)Oc1ccccc1C1CC(=O)Nc2cc3c(cc21)OCCO3", "note": "(stereo not given)", "values": [{"measurement": "EC50", "setting": "BJ [1]", "value": "1.36 µM (active)"}, {"measurement": "EC50", "setting": "BJ [2]", "value": "8.62 µM (active)"}, {"measurement": "EC50", "setting": "BJ [3]", "value": "0.709 µM (active)"}, {"measurement": "EC50", "setting": "[4]", "value": "0.676 µM (active)"}, {"measurement": "IC50", "setting": "[5]", "value": "> 80 µM (inactive)"}, {"measurement": "EC50", "setting": "BJ [6]", "value": "0.181 µM (active)"}]}, {"compound": "N#C/C(=C\\c1ccc(OC(=O)c2cccs2)cc1)c1nc2ccccc2[nH]1", "values": [{"measurement": "EC50", "setting": "[7]", "value": "76.2 µM (active)"}, {"measurement": "EC50", "setting": "[8]", "value": "3.35 µM (active)"}, {"measurement": "IC50", "setting": "[9]", "value": "11.4 µM (active)"}]}, {"compound": "COc1cccc(CC2(CO)CCCN(Cc3[nH]c4ccc(C)cc4c3C)C2)c1", "note": "(stereo not given)", "values": [{"measurement": "EC50", "setting": "[10]", "value": "> 112 µM (not active)"}, {"measurement": "EC50", "setting": "[11]", "value": "> 112 µM (not active)"}, {"measurement": "CC50", "setting": "[12]", "value": "39.3 µM (active)"}, {"measurement": "EC50", "setting": "Melanocortin receptor 4", "value": "> 89.2 µM (inactive)"}]}, {"compound": "CC(C)C[C@@H](CO)N(Cc1ccccc1)S(=O)(=O)N(Cc1ccccc1)[C@H](CO)CC(C)C", "values": [{"measurement": "AC50", "setting": "[13]", "value": "5.76 µM (active)"}, {"measurement": "AC50", "setting": "[14]", "value": "10.1 µM (active)"}, {"measurement": "AC50", "setting": "[15]", "value": "21 µM (active)"}]}, {"compound": "CCOc1ccc(C=NNc2ccc(S(=O)(=O)Nc3ccccc3C(=O)O)cc2[N+](=O)[O-])cc1OC", "values": [{"measurement": "IC50", "setting": "Beta-galactosidase", "value": "> 66.6 µM (inactive)"}, {"measurement": "IC50", "setting": "[9]", "value": "3.51 µM (active)"}]}, {"compound": "Cc1ccccc1NC(=O)CSc1nc2ccccc2c(=O)n1C", "values": [{"measurement": "AC50", "setting": "[14]", "value": "7.64 µM (active)"}, {"measurement": "AC50", "setting": "[15]", "value": "59.6 µM (active)"}]}, {"compound": "COc1cccc(C2c3c(-c4ccccc4)n[nH]c3C(=O)N2c2ccc(C(=O)O)cc2)c1", "note": "(stereo not given)", "values": [{"measurement": "IC50", "setting": "[9]", "value": "5.63 µM (active)"}]}, {"compound": "CC(=O)Nc1cc(-c2ccccc2)cn2c(-c3ccc(F)c(Cl)c3)cnc12", "values": [{"measurement": "EC50", "setting": "Melanocortin receptor 4", "value": "> 89.2 µM (inactive)"}]}, {"compound": "C[C@@H]1CN([C@@H](C)CO)S(=O)(=O)c2ccc(/C=C/c3ccccc3)cc2O[C@@H]1CN(C)Cc1ccc(C(=O)O)cc1", "values": [{"measurement": "AC50", "setting": "HEK293", "value": "35.4 µM (active)"}]}, {"compound": "CC1(C)CC(=O)C=C(Nc2cccc(Cl)c2Cl)C1", "values": [{"measurement": "IC50", "setting": "[16]", "value": "3.16 µM (active)"}]}, {"compound": "N#Cc1cnc(Cl)nc1N", "values": [{"measurement": "Ki", "setting": "[17]", "value": "100 µM (active)"}]}]}
